Measured values from US12377127B2, “Treatment for diseases caused by RNA virus SARS-CoV-2” (Amerimmune, LLC, priority 2020, dated 2025).

Columns and labels:
[1] = biological target: T1, Caspase 1 (Homo sapiens, UniProt P29466); test: Ex vivo stimulation: active caspase-1 in CD4 T (T-helper) cells after whole blood incubation with caspase inhibitors (Example 9); assay type: cell-based; details: inhibitor 24 hrs, then with or without nigericin; for T-helper cell caspase-1 expression: COVID-19 whole blood samples
T1 construct: A Fam-FLICA probe specific for Caspase 1 was directly added to 50 μl PBMC; endogenous in cells; host or cells: PBMC (CD3-, CD3+, CD3+CD4+ lymphocytes) purified from human whole blood
T1 sequence (P29466 120-297 limits assumed): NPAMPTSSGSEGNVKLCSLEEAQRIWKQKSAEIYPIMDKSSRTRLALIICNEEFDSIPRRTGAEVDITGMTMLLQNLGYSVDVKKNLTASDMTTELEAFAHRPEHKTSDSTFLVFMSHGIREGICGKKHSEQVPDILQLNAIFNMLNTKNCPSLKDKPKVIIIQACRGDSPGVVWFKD
T1 sequence (P29466 317-404 limits assumed): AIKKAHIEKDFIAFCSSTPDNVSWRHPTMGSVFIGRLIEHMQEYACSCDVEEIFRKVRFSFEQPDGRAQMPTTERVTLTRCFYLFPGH
Protocol: Apoptosis and pyroptosis were measured by flow cytometry using fluorescent-labeled inhibitors of caspase probe assay (FLICA; Immunochemistry Technologies, Minneapolis, MN). As a control, PBMCs were stimulated with nigericin for 2 hours. FAM-FLICA probes specific for caspase-1 was added to 50 μl PBMC and incubated for 1h at 37° C. Cells were subsequently washed and stained for CD45 PE-CY7 [HI30], CD3 AF700 [UCHT1], CD4 PE [RPA-T4], CD45RO PerCP-EF710 [UCHL1], and Viability Dye 780 (Thermo Fisher Scientific, Carlsbad, CA). Samples were acquired on a 3 laser BD FACS Canto 10. CS&T beads (BD Bioscience, San Jose, CA) were acquired daily to ensure consistent performance of the Canto10. The CANTO10 utilized for this study was validated for T, B, NK, and dendritic cell immunophenotyping clinical diagnostic testing. Denovo FCS Express v6 clinical edition (De Novo Software, Pasadena, CA) was used for flow cytometric analyses.
Active caspase-1 in COVID-19+ patient samples. Whole blood from a COVID-19 positive patient was either (A) untreated or (B) treated with emricasan (1 μM, Sigma Aldrich, MO, SML2227-5MG) or selective caspase-1 inhibitor VX765 overnight at 37° C. in a water bath. Subsequently, PBMCs were purified (Accuspin System—Histopaque 1077; Sigma Aldrich, MO, A6929) and incubated with nigericin (Immunochemistry Technologies, MN) for 2h. A Fam-FLICA probe specific for active caspase-1 was added to 50 μl PBMC and then incubated for 1h at 37° C. PMBCs were washed with cell wash buffer (Immunochemistry Technologies, MN) and stained with CD45 PE-CY7 [H130], CD3 AF700 [UCHT1], CD4 PE [RPA-T4], CD45RO PerCP-EF710 [UCHL1], and Viability Dye 780 (Thermo Fisher Scientific, Carlsbad, CA). Lymphocytes were identified using a standard gating schematic that incorporated gating of lymphocytes on an FSC/SSC plot and singlets on a FSC-A/FSC-H plot. Lymphocytes were further identified as CD45+ on a CD45/SSC plot and subsequent CD3−, CD3+ and CD3+CD4+ cells were identified on a CD45+ CD3/CD4 plot. Shown are the active caspase-1 MFI and % positive for the three cellular populations indicated. […]

[2] = system: red blood cell (RBC) layer in the PBMC layer ("red ring"); assay type: cell-based, human; details: PBMCs from COVID-19 patient samples, 1 micromolar, room temperature, 17 hours
[3] = biological target: T2, caspase-3 (Homo sapiens, UniProt P42574); test: Caspase-3 in RBCs incubated with patient plasma (Example 9); assay type: cell-based
T2 construct: EMR suppressed the caspase-3 up-regulation in the COVID-19 plasma incubated samples; endogenous in cells; host or cells: human red blood cells (healthy subjects' RBCs incubated with patient plasma)
T2 sequence (P42574 29-277): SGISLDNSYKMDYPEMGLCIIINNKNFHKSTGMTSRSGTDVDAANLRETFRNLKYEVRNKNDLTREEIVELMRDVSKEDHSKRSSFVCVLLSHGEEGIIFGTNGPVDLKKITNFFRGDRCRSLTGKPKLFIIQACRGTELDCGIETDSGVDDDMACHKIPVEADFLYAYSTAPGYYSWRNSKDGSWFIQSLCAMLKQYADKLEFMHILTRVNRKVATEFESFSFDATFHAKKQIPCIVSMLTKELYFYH
Protocol: Plasma was separated from whole blood following centrifugation at 960 RCF. Cells (RBC and WBC) were either incubated at 37° C. alone or in the presence of trypsin for 1 hour then washed with 10 packed cell volumes of RPMI 1640 incomplete medium. Plasma was either held at room temperature (18-25° C.) or heat inactivated at 56° C. for 1 hr. Plasma was added back to the RBC/WBC in a 1:1 ratio and incubated overnight, rocking at room temperature.
Cellular caspases are not limited to immune cells. […] In the process of Ficoll separation, a layer of RBCs contaminating the PBMC layer was observed, which layer was universally present in all samples from COVID-19 individuals (FIG. 6A). This finding was also present in up to 80% of COVID-19 convalescent subjects. Plasma from acutely infected subjects induced a similar finding when incubated overnight with plasma depleted whole blood of healthy patients.

[4] = biological target: T1, Caspase 1; test: Active caspase-1 by FAM-FLICA flow cytometry in PBMCs from Emricasan-treated COVID-19(+) whole blood (Example 7); assay type: cell-based; details: 1 μM
Protocol: Whole blood from COVID-19(+) patients was incubated either (A) without addition of Emricasan (Untreated) or (B) with Emricasan (Sigma Aldrich, MO, SML2227-5MG), 1 μM final concentration for 3.5 hours at room temperature (Treated). Following incubation with or without Emricasan, PBMCs were purified using an Accuspin System—Histopaque 1077 (Sigma Aldrich, MO, A6929) as per the manufacturer's instructions. Purified Treated and Untreated PBMCs were incubated with nigericin (Immunochemistry Technologies, MN) as per the manufacturer's instructions for 2 hours. A Fam-FLICA probe specific for Caspase 1 was directly added to 50 μl PBMC and then incubated for 1 hour at 37° C. PMBCs were washed with cell wash buffer (Immunochemistry Technologies, MN) to remove unbound FLICA probes. Washed PBMCs were FACS-sorted using CD45 PE-CY7 [H130], CD3 AF700 [UCHT1], CD4 PE [RPA-T4], CD45RO PerCP-EF710 [UCHL], and Viability Dye 780 (Thermo Fisher Scientific, Carlsbad, CA) to identify viable CD3−cells as well as CD3+ cells and CD3+ CD4+ T cells. Lymphocytes were identified using a standard gating schematic that incorporated gating of lymphocytes on a FSC/SSC plot and singlets on a FSC-A/FSC-H plot. Lymphocytes were further identified as CD45+ on a CD45/SSC plot and subsequent CD3−, CD3+, and CD3+ CD4+ cells were identified on a CD45+ CD3/CD4 plot.
In another experiment, whole blood was incubated with 1 μM Emricasan for 17 hours (overnight between 5 PM to 10 AM) at room temperature on a rocker. The same experiment described above to examine active caspase 1 in PBMCs was performed.

[5] = COVID-19(+) whole blood, 3.5 hours, room temperature, nigericin 2 hours, CD3-, CD3+, CD3+CD4+ cells, vs untreated, p≤0.005

SMILES	T-helper cell caspase-1 expression [1]	T-helper cell caspase-1 upregulation ([1]; healthy subjects' whole blood)	"red ring" (RBC layer contaminating PBMCs) [2]	RBC caspase-3 up-regulation ([3]; healthy subjects' RBCs incubated with COVID-19 plasma)	RBC caspase-3 baseline expression levels ([3]; influenza-plasma incubated samples)	active caspase-1 % positive cells [4, 5]	active caspase-1 MFI [4, 5]	inhibition of nigericin-induced Caspase-1 activity ([4]; whole blood, 17 hours (overnight), room temperature on a rocker, 3 samples from COVID-19 patients)
C[C@H](NC(=O)C(=O)Nc1ccccc1C(C)(C)C)C(=O)N[C@@H](CC(=O)O)C(=O)COc1c(F)c(F)cc(F)c1F [Emricasan, (3S)-3-{[(2S)-2-{[2-(2-tert-butylanilino)-2-oxoacetyl]amino}propanoyl]amino}-4-oxo-5-(2,3,5,6-tetrafluorophenoxy)pentanoic acid]	suppressed	prevented its upregulation	decrease	suppressed	did not change	significant reduction	significant reduction	seen in only ⅓ sample
CCO[C@@H]1OC(=O)C[C@@H]1NC(=O)[C@@H]1CCCN1C(=O)[C@@H](NC(=O)c1ccc(N)c(Cl)c1)C(C)(C)C [VX765, Belnacasan]	did not show a strong similar suppressive effect							
